# Experimental data from US8541588B2, “Sulfonamide derivatives” (Pfizer Limited, priority 2009, dated 2013).
# Several values for one entry are separate records, joined by “and”; a condition that tells them apart may be missing. Identical values can stand only once.
# Target: T1, Nav1.7 (or SCN9A) channel; HEK cells stably transfected with hSCN9A (Homo sapiens, UniProt Q15858)
# T1 construct: expressed in transfected cells
# Experiment: Nav1.7 block, PatchXpress 7000 automated whole-cell voltage clamp, estimated IC50 (EIC50)
# Format: cell-based
# Conditions: PatchXpress platform; hSCN9A HEK cells held at V1/2 of inactivation; estimated IC50
# T1 sequence (Q15858 whole entry): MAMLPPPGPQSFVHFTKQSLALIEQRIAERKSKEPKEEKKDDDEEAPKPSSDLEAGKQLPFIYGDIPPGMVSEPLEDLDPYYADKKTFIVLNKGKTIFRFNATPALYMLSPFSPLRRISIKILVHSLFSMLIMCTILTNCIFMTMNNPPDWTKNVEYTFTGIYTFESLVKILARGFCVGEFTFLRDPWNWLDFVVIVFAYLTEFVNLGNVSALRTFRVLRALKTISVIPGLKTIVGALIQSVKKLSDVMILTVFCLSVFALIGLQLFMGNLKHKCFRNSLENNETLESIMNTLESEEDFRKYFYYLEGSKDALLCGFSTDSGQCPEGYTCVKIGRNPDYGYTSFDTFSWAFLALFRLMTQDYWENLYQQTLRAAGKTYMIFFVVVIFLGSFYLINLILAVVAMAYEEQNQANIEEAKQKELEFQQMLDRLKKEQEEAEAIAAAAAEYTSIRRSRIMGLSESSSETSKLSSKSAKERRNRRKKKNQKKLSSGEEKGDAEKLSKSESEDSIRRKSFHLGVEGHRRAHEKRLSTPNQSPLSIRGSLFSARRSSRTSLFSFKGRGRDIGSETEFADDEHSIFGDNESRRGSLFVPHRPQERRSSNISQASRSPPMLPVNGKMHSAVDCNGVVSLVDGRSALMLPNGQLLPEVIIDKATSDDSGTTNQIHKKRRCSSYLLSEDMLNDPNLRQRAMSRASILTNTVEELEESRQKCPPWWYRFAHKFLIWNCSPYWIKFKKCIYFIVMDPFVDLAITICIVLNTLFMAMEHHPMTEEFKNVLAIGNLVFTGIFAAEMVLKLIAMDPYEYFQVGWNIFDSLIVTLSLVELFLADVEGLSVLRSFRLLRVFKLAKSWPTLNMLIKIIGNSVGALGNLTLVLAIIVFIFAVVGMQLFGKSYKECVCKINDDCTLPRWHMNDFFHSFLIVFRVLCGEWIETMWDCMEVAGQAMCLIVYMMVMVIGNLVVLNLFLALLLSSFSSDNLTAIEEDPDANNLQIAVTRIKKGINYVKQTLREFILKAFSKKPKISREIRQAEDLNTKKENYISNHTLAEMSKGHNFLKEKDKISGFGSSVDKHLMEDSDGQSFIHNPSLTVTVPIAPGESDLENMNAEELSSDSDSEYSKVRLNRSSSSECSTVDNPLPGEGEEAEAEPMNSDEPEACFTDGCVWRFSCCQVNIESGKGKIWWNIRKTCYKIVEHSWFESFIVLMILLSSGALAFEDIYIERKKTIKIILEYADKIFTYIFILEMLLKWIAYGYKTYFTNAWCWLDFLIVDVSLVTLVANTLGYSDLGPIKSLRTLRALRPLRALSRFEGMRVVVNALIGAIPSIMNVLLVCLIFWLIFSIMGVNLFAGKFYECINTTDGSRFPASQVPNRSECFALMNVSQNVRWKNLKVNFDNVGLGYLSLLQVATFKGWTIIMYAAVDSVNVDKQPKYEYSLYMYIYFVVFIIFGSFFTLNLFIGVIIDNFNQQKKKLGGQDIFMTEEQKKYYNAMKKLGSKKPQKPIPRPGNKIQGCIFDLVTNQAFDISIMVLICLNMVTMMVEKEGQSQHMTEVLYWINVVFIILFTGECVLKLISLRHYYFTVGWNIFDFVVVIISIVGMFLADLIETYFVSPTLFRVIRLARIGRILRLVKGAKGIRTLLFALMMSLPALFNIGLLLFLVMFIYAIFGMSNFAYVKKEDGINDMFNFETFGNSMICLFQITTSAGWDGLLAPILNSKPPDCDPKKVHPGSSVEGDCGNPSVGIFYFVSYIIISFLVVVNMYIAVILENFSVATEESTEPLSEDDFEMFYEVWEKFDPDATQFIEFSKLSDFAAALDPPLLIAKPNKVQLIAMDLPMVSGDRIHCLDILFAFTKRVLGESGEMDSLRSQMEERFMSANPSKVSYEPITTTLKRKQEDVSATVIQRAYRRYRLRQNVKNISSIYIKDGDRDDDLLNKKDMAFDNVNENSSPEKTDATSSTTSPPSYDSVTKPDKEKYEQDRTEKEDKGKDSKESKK
row,Structure (SMILES),IC50
1,"CC(C)c1nn(-c2ccccc2Cl)cc1Oc1ccc(S(=O)(=O)Nc2ncns2)cc1C#N [Example 67, 4-{[1-(2-chlorophenyl)-3-isopropyl-1H-pyrazol-4-yl]oxy}-3-cyano-N-1,2,4-thiadiazol-5-ylbenzenesulfonamide]",4.22 µM
2,"N#Cc1cc(S(=O)(=O)Nc2ncns2)ccc1Oc1ccccc1Oc1ccccc1 [Example 68, 3-cyano-4-(2-phenoxyphenoxy)-N-1,2,4-thiadiazol-5-ylbenzenesulfonamide]",0.77 µM
3,"CN1C(=O)CCC1c1ccccc1Oc1ccc(S(=O)(=O)Nc2ncns2)cc1C#N (centres unmarked) [Example 69, 3-cyano-4-[2-(1-methyl-5-oxopyrrolidin-2-yl)phenoxy]-N-1,2,4-thiadiazol-5-ylbenzenesulfonamide]",36.1 µM
4,"Cn1nccc1-c1ccccc1Oc1ccc(S(=O)(=O)Nc2ncns2)cc1C#N [Example 70, 3-cyano-4-[2-(1-methyl-1H-pyrazol-5-yl)phenoxy]-N-1,2,4-thiadiazol-5-ylbenzenesulfonamide]",0.11 µM
5,"Cn1nccc1-c1cc(Cl)cc(Cl)c1Oc1ccc(S(=O)(=O)Nc2ncns2)cc1C#N [Example 71, 3-cyano-4-[2,4-dichloro-6-(1-methyl-1H-pyrazol-5-yl)phenoxy]-N-1,2,4-thiadiazol-5-ylbenzenesulfonamide]",12.5 µM
6,"CCn1nc(C)c(-c2ccccc2Oc2ccc(S(=O)(=O)Nc3ncns3)cc2C#N)c1C [Example 72, 3-cyano-4-[2-(1-ethyl-3,5-dimethyl-1H-pyrazol-4-yl)phenoxy]-N-1,2,4-thiadiazol-5-ylbenzenesulfonamide]",>0.3 µM
7,"Cn1nccc1-c1cc(F)cc(F)c1Oc1ccc(S(=O)(=O)Nc2ncns2)cc1C#N [Example 73, 3-cyano-4-[2,4-difluoro-6-(1-methyl-1H-pyrazol-5-yl)phenoxy]-N-1,2,4-thiadiazol-5-ylbenzenesulfonamide]",23.4 µM
8,"N#Cc1cc(S(=O)(=O)Nc2ncns2)ccc1Oc1cc(F)ccc1Oc1ccccc1 [Example 74, 3-cyano-4-(5-fluoro-2-phenoxyphenoxy)-N-1,2,4-thiadiazol-5-ylbenzenesulfonamide]",1.11 µM
9,"COc1cc(C)ccc1Oc1cccc(F)c1Oc1ccc(S(=O)(=O)Nc2ncns2)cc1C#N [Example 75, 3-cyano-4-[2-fluoro-6-(2-methoxy-4-methylphenoxy)phenoxy]-N-1,2,4-thiadiazol-5-ylbenzenesulfonamide]",3.34 µM
10,"N#Cc1cc(S(=O)(=O)Nc2ncns2)ccc1Oc1ccccc1Oc1ccccc1C(N)=O [Example 76, 2-(2-{2-cyano-4-[(1,2,4-thiadiazol-5-yl-amino)sulfonyl]phenoxy}phenoxy)benzamide]",>10 µM
11,"N#Cc1cc(S(=O)(=O)Nc2ncns2)ccc1Oc1ccccc1Oc1ccc(F)cc1 [Example 77, 3-cyano-4-[2-(4-fluorophenoxy)phenoxy]-N-1,2,4-thiadiazol-5-ylbenzenesulfonamide]",0.36 µM
12,"Cc1ccc(Oc2ccc(C#N)cc2)c(Oc2ccc(S(=O)(=O)Nc3ncns3)cc2C#N)c1 [Example 78, 3-cyano-4-[2-(4-cyanophenoxy)-5-methylphenoxy]-N-1,2,4-thiadiazol-5-ylbenzenesulfonamide]",0.6 µM
13,"N#Cc1cc(S(=O)(=O)Nc2ncns2)ccc1Oc1ccc(Cl)cc1Oc1ccccc1 [Example 79, 4-(4-chloro-2-phenoxyphenoxy)-3-cyano-N-1,2,4-thiadiazol-5-ylbenzenesulfonamide]",0.45 µM
14,"N#Cc1cc(S(=O)(=O)Nc2ncns2)ccc1Oc1cc(C(F)(F)F)nn1Cc1ccccc1 [Example 80, 4-{[1-benzyl-3-(trifluoromethyl)-1H-pyrazol-5-yl]oxy}-3-cyano-N-1,2,4-thiadiazol-5-ylbenzenesulfonamide]",>0.3 µM
15,"N#Cc1cc(S(=O)(=O)Nc2ncns2)ccc1Oc1cc(C(F)(F)F)nn1-c1ccccc1 [Example 81, 3-cyano-4-{[1-phenyl-3-(trifluoromethyl)-1H-pyrazol-5-yl]oxy}-N-1,2,4-thiadiazol-5-ylbenzenesulfonamide]",0.51 µM
16,"Cn1nc(-c2ccccc2)cc1Oc1ccc(S(=O)(=O)Nc2ncns2)cc1C#N [Example 82, 3-cyano-4-[(1-methyl-3-phenyl-1H-pyrazol-5-yl)oxy]-N-1,2,4-thiadiazol-5-ylbenzenesulfonamide]",37.2 µM
17,"CC(C)(C)n1nccc1-c1c(F)cccc1Oc1ccc(S(=O)(=O)Nc2ncns2)cc1C#N [Example 83, 4-[2-(1-tert-butyl-1H-pyrazol-5-yl)-3-fluorophenoxy]-3-cyano-N-1,2,4-thiadiazol-5-ylbenzenesulfonamide]",2.45 µM
18,"CC(C)(C)n1ccc(-c2c(F)cccc2Oc2ccc(S(=O)(=O)Nc3ncns3)cc2C#N)n1 [Example 84, 4-[2-(1-tert-Butyl-1H-pyrazol-3-yl)-3-fluoro-phenoxy]-3-cyano-N-[1,2,4]thiadiazol-5-yl-benzene-sulfonamide]",>10 µM
19,"Cn1ccc(-c2c(F)cccc2Oc2ccc(S(=O)(=O)Nc3ncns3)cc2C#N)n1 [Example 85, 3-Cyano-4-[3-fluoro-2-(1-methyl-1H-pyrazol-3-yl)-phenoxy]-N-[1,2,4]thiadiazol-5-yl-benzene-sulfonamide]",1.43 µM

row,Structure (SMILES),IC50
1,"Cn1nccc1-c1c(F)cccc1Oc1ccc(S(=O)(=O)Nc2ncns2)cc1C#N [Example 86, 3-cyano-4-[3-fluoro-2-(1-methyl-1H-pyrazol-5-yl)phenoxy]-N-1,2,4-thiadiazol-5-ylbenzenesulfonamide]",1.88 µM
2,"N#Cc1cc(S(=O)(=O)Nc2ncns2)ccc1Oc1cc(C2CC2)nn1-c1cc(F)ccc1F [Example 87, 3-cyano-4-{[3-cyclopropyl-1-(2,5-difluorophenyl)-1H-pyrazol-5-yl]oxy}-N-1,2,4-thiadiazol-5-ylbenzenesulfonamide]",1.6 µM
3,"N#Cc1cc(S(=O)(=O)Nc2ncns2)ccc1Oc1cc(C(F)(F)F)nn1-c1ccccc1F [Example 88, 3-cyano-4-{[1-(2-fluorophenyl)-3-(trifluoromethyl)-1H-pyrazol-5-yl]oxy}-N-1,2,4-thiadiazol-5-ylbenzenesulfonamide]",0.27 µM
4,"N#Cc1cc(S(=O)(=O)Nc2ncns2)ccc1Oc1cccc(F)c1-c1ccn[nH]1 [Example 89, 3-cyano-4-[3-fluoro-2-(2H-pyrazol-3-yl)-phenoxy]-N-[1,2,4]thiadiazol-5-yl-benzenesulfonamide]",0.68 µM
5,"N#Cc1cc(S(=O)(=O)Nc2ncns2)ccc1Oc1ccc(Cl)cc1-c1ccnn1CCO [Example 90, 4-(4-chloro-2-(1-(2-hydroxyethyl)-1H-pyrazol-5-yl)phenoxy)-3-cyano-N-(1,2,4-thiadiazol-5-yl)benzenesulfonamide]",0.1 µM
6,"Cn1nccc1-c1cc(CO)ccc1Oc1ccc(S(=O)(=O)Nc2ncns2)cc1C#N [Example 91, 3-cyano-4-(4-(hydroxymethyl)-2-(1-methyl-1H-pyrazol-5-yl)phenoxy)-N-(1,2,4-thiadiazol-5-yl)benzenesulfonamide]",1.12 µM
7,"CCOC(=O)Cn1nc(Cc2ccc(Cl)cc2)cc1Oc1ccc(S(=O)(=O)Nc2ncns2)cc1C#N [Example 92, 3-(4-chloro-benzyl)-5-{2-cyano-4-(1,2,4-thiadiazol-5-ylsulfamoyl)-phenoxy}-pyrazol-1-yl-acetic acid ethyl ester]",1.81 µM
8,"N#Cc1cc(S(=O)(=O)Nc2ncns2)ccc1Oc1cc(Cc2ccc(Cl)cc2)nn1CC(N)=O [Example 93, 2-[3-(4-chlorobenzyl)-5-{2-cyano-4-[(1,2,4-thiadiazol-5-ylamino)sulfonyl]phenoxy}-1H-pyrazol-1-yl]acetamide]",1.57 µM
9,"N#Cc1cc(S(=O)(=O)Nc2ncns2)ccc1Oc1cc(Cc2ccc(Cl)cc2)nn1CCO [Example 94, 4-{[3-(4-chlorobenzyl)-1-(2-hydroxyethyl)-1H-pyrazol-5-yl]oxy}-3-cyano-N-1,2,4-thiadiazol-5-ylbenzenesulfonamide]",2.18 µM
10,"N#Cc1cc(S(=O)(=O)Nc2ncco2)ccc1Oc1ccccc1-c1ccccc1 [Example 95, 4-(biphenyl-2-yloxy)-3-cyano-N-1,3-oxazol-2-ylbenzenesulfonamide]",>10 µM
11,"COc1nsc(NS(=O)(=O)c2ccc(Oc3ccccc3-c3ccccc3)c(C#N)c2)n1 [Example 96, 4-(biphenyl-2-yloxy)-3-cyano-N-(3-methoxy-1,2,4-thiadiazol-5-yl)benzenesulfonamide]",12.5 µM
12,"N#Cc1cc(S(=O)(=O)Nc2cscn2)ccc1Oc1ccccc1-c1ccccc1 [Example 97, 4-(biphenyl-2-yloxy)-3-cyano-N-1,3-thiazol-4-ylbenzenesulfonamide]",2.32 µM
13,"N#Cc1cc(S(=O)(=O)Nc2cnsc2)ccc1Oc1ccccc1-c1ccccc1 [Example 99, 4-(biphenyl-2-yloxy)-3-cyano-N-isothiazol-4-ylbenzenesulfonamide]",>10 µM and 24.9 µM
14,"Cc1cnc(NS(=O)(=O)c2ccc(Oc3ccccc3-c3ccccc3)c(C#N)c2)s1 [Example 100, 4-(biphenyl-2-yloxy)-3-cyano-N-(5-methyl-1,3-thiazol-2-yl)benzenesulfonamide]",3.17 µM
15,"Cc1csc(NS(=O)(=O)c2ccc(Oc3ccccc3-c3ccccc3)c(C#N)c2)n1 [Example 101, 4-(biphenyl-2-yloxy)-3-cyano-N-(4-methyl-1,3-thiazol-2-yl)benzenesulfonamide]",1.58 µM
16,"CCc1nsc(NS(=O)(=O)c2ccc(Oc3ccccc3-c3ccccc3)c(C#N)c2)n1 [Example 102, 4-(biphenyl-2-yloxy)-3-cyano-N-(3-ethyl-1,2,4-thiadiazol-5-yl)benzenesulfonamide]",>10 µM
17,"Cc1nsc(NS(=O)(=O)c2ccc(Oc3ccccc3-c3ccccc3)c(C#N)c2)n1 [Example 103, 4-(biphenyl-2-yloxy)-3-cyano-N-(3-methyl-1,2,4-thiadiazol-5-yl)benzenesulfonamide]",1.3 µM
18,"N#Cc1cc(S(=O)(=O)Nc2nncs2)ccc1Oc1ccccc1-c1ccccc1 [Example 104, 4-(biphenyl-2-yloxy)-3-cyano-N-1,3,4-thiadiazol-2-ylbenzenesulfonamide]",2.25 µM
19,"N#Cc1cc(S(=O)(=O)Nc2cncs2)ccc1Oc1ccccc1-c1ccccc1 [Example 105, 4-(biphenyl-2-yloxy)-3-cyano-N-1,3-thiazol-5-ylbenzenesulfonamide]",2.67 µM
